Results from patent publication US20230090391A1, “OMECAMTIV MECARBIL TABLET” (Amgen Inc., priority 2020, published 2023).
Structures can show the parent of a compound that is named as a salt.

Columns and labels:
[1] = Phase 1 crossover study: safety and tolerability of single oral doses of OM; type: in vivo, healthy adult subjects; settings: all 5 treatments
Method: The secondary objective of the study was to evaluate the safety and tolerability of a single 6 mg dose (administered as mini-tablets) or 25 mg dose (administered as a MR tablet or mini-tablets) of OM administered to healthy adult subjects.
The study was a Phase 1, single-center, open-label, randomized, 5-period, 4-sequence crossover study to investigate the pharmacokinetics, safety, and tolerability of the disclosed tablet formulations and a conventional MR tablet formulation of OM in healthy male and healthy female adult subjects. Subjects were screened to assess eligibility to enter the study within 21 days prior to the first dose administration. Subjects were admitted into the clinical research unit on Day 1 and confined to the clinical research unit for Periods 1 through 5 until discharged at end of study. Following randomization into 1 of 4 treatment sequences, subjects received 1 of the 5 treatments on Day 1 of each treatment period with all subjects receiving all 5 treatments. Blood was collected at predetermined timepoints to characterize plasma concentrations of OM. Safety and tolerability monitoring was performed throughout the study.
Up to twenty subjects (5 per sequence) were enrolled in the study. Data for all 20 subjects entered into the study were included in the PK and safety analyses. Healthy male or female subjects were selected according to inclusion and exclusion criteria. The subjects were assigned to one of the five following Treatment Groups (A-E): • Treatment Group A: 25 mg (1×25 mg) OM MR tablet; • Treatment Group B: 25 mg (25×1 mg) OM slow-release mini-tablets; • Treatment Group C: 25 mg (25×1 mg) OM fast-release mini-tablets; • Treatment Group D: 6 mg (6×1 mg) OM slow-release mini-tablets; and • Treatment Group E: 6 mg (6×1 mg) OM fast-release mini-tablets.
The safety analysis included monitoring adverse events, clinical laboratory evaluations, 12 lead electrocardiograms (ECGs), and vital signs during the study.
All safety data were listed. The treatment-emergent adverse events were summarized by treatment, severity, and relationship to the study drug. The frequency of treatment emergent adverse events was summarized by treatment, system organ class and preferred term of the Medical Dictionary for Regulatory Activities. No inferential statistical analyses were planned.

[2] = 19F solid state NMR of granulation and IR mini-tablet cores (physical form); type: physicochemical; settings: 19F SSNMR of IR granulation and IR mini-tablet cores
From the text: Cores 1A-1C, as well as the corresponding granulates, were subjected to analytical characterizations. The results are depicted in FIGS. 3 and 4.
FIGS. 3 and 4 depict the ^19F solid state NMR (SSNMR) spectra of the immediate-release granulation and immediate-release mini-tablet cores.

Row | Structure (SMILES) | Clinical laboratory evaluations, vital signs, 12-lead ECGs ([1]; 20 subjects) | Number of subjects reporting treatment-emergent adverse events considered related to OM ([1]; 20 subjects) [subjects] | Serious adverse events ([1]; 20 subjects) | Treatment-emergent adverse events leading to discontinuation ([1]; 20 subjects) | Severity of adverse events ([1]; 20 subjects, resolved by the end of the study) | Number of treatment-emergent adverse events considered related to OM ([1]; myalgia, dizziness, costochondritis, muscle twitching, non-cardiac chest pain) | Stability and physical form during manufacturing [2]
1 | COC(=O)N1CCN(Cc2cccc(NC(=O)Nc3ccc(C)nc3)c2F)CC1 [OM, Omecamtiv mecarbil] | no clinically significant findings | 7 | no serious adverse events | no treatment-emergent adverse events led to premature discontinuation | mild | Eight | –
2 | COC(=O)N1CCN(Cc2cccc(NC(=O)Nc3ccc(C)nc3)c2F)CC1 [omecamtiv mecarbil dihydrochloride monohydrate] | – | – | – | – | – | – | stable during manufacturing and exhibits no change in physical form
